According to the supplement of paper PMC10307832:

Experiments:
Test in all cases: relative viability (nuclei count vs DMSO), 5 days (fraction); higher = more cells survive
[1] = compound: O=c1ncccn1[C@@H]1O[C@H](CO)[C@@H](O)[C@H]1O [Zebularine] + C[C@@H](Oc1cc(-c2cnn(C3CCNCC3)c2)cnc1N)c1c(Cl)ccc(F)c1Cl [Crizotinib] (partner 1 µM)
Summary of the method: (§1)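 Lung cancer cell lines in 1536-well plates were dosed by pin tool the day after seeding, either with one drug alone or with a fixed anchor-drug dose plus five library-drug doses (not always all listed) in √10 steps. After 5 days, cells were fixed and their nuclei stained in one step (final 0.05% Triton X-100, 1% formaldehyde, 1 ug/ml Hoechst), then counted on 4× images. Relative viability is the nuclei count in treated wells divided by that in vehicle wells. Values are medians of duplicate plates.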

[2] = compound: CC(C)CCN1c2nc(Nc3cc(F)c(O)c(F)c3)ncc2N(C)C(=O)C1C [BI-D1870] + Cc1cc(Nc2cc(N3CCN(C)CC3)nc(Sc3ccc(NC(=O)C4CC4)cc3)n2)n[nH]1 [Tozasertib] (partner 0.1 µM)
Summary of the method: as §1

[3] = compound: O=c1ncccn1[C@@H]1O[C@H](CO)[C@@H](O)[C@H]1O [Zebularine] + Nc1nc2[nH]cc(CCc3ccc(C(=O)N[C@@H](CCC(=O)O)C(=O)O)cc3)c2c(=O)[nH]1 [Pemetrexed] (partner 0.2 µM)
Summary of the method: as §1

[4] = compound: O=c1ncccn1[C@@H]1O[C@H](CO)[C@@H](O)[C@H]1O [Zebularine] + CC1(C)CCC(c2ccc(Cl)cc2)=C(CN2CCN(c3ccc(C(=O)NS(=O)(=O)c4ccc(N[C@H](CCN5CCOCC5)CSc5ccccc5)c(S(=O)(=O)C(F)(F)F)c4)cc3)CC2)C1 [Navitoclax] (partner 0.5 µM)
Summary of the method: as §1

Cell Line | relative viability ([1]; first compound 1 µM) | relative viability ([1]; first compound 3.162 µM) | relative viability ([1]; first compound 10 µM) | relative viability ([1]; first compound 31.62 µM) | relative viability ([1]; first compound 100 µM) | relative viability ([2]; first compound 0.04 µM) | relative viability ([2]; first compound 0.1265 µM) | relative viability ([2]; first compound 0.4 µM) | relative viability ([2]; first compound 1.265 µM) | relative viability ([2]; first compound 4 µM) | relative viability ([3]; first compound 1 µM) | relative viability ([3]; first compound 3.162 µM) | relative viability ([3]; first compound 10 µM) | relative viability ([3]; first compound 31.62 µM) | relative viability ([3]; first compound 100 µM) | relative viability ([4]; first compound 1 µM) | relative viability ([4]; first compound 3.162 µM) | relative viability ([4]; first compound 10 µM) | relative viability ([4]; first compound 31.62 µM) | relative viability ([4]; first compound 100 µM)
COR-L23 | 0.633 | 0.742 | 0.454 | 0.351 | 0.182 | 0.199 | 0.166 | 0.145 | 0.181 | 0.13 | 0.201 | 0.199 | 0.193 | 0.207 | 0.168 | 1.02 | 1.15 | 0.323 | 0.558 | 0.218
ABC-1 | 1.04 | 1.01 | 0.812 | 0.779 | 0.565 | 0.171 | 0.155 | 0.15 | 0.197 | 0.197 |  |  |  |  |  |  |  |  |  | 
NCI-H522 |  |  |  |  |  | 0.559 | 0.648 | 0.583 | 0.505 | 0.533 | 0.888 | 1.1 | 0.967 | 1.03 | 0.95 |  |  |  |  | 
NCI-H838 | 0.93 | 0.838 | 0.493 | 0.65 | 0.3 | 0.283 | 0.265 | 0.243 | 0.251 | 0.22 | 0.259 | 0.267 | 0.234 | 0.221 | 0.17 | 1.2 | 1.21 | 0.561 | 0.815 | 0.403
SW 900 |  |  |  |  |  | 0.472 | 0.542 | 0.463 | 0.408 | 0.284 | 0.534 | 0.483 |  | 0.53 | 0.41 |  |  |  |  | 
A549 | 0.847 | 0.846 | 0.478 | 0.228 | 0.164 |  |  |  |  |  |  |  |  |  |  | 1.24 | 1.12 |  | 0.913 | 0.206
A-427 | 1.21 | 0.795 | 0.624 | 0.345 | 0.188 | 0.202 | 0.213 | 0.21 | 0.238 | 0.221 | 1.08 | 0.991 | 0.95 | 0.538 | 0.294 | 0.974 | 0.932 | 0.563 | 0.483 | 0.205
NCI-H1792 | 1.06 | 0.876 | 0.381 | 0.386 | 0.339 |  |  |  |  |  | 1.04 | 0.71 | 0.24 | 0.307 | 0.271 | 0.61 | 0.679 | 0.816 | 0.325 | 0.18
LCLC-97TM1 | 0.355 | 0.291 | 0.145 | 0.121 | 0.12 | 0.302 | 0.289 | 0.221 | 0.225 | 0.186 | 0.167 | 0.172 | 0.13 | 0.146 | 0.0657 | 0.422 | 0.351 | 0.238 | 0.149 | 0.143
NCI-H1703 | 0.623 | 0.852 |  | 0.67 | 0.913 |  |  |  |  |  |  |  |  |  |  | 1.17 | 0.915 | 0.859 | 1.31 | 0.813
LCLC-103H | 1.07 | 1.11 | 0.867 | 1.07 | 0.862 | 0.44 | 0.285 | 0.465 | 0.565 | 0.49 | 0.459 | 0.443 | 0.388 | 0.504 | 0.443 |  |  |  |  | 
PC-3 [JPC-3] | 1.09 | 0.943 | 0.64 | 0.699 | 0.476 | 0.913 | 0.911 | 0.866 | 0.902 | 0.8 | 1.43 | 1.06 | 1.07 | 0.755 | 0.813 | 0.751 | 0.749 | 0.603 | 0.748 | 0.583
Calu-6 | 0.902 | 0.77 | 0.556 | 0.447 | 0.211 |  |  |  |  |  |  |  |  |  |  | 1.03 | 0.825 | 0.649 | 0.647 | 0.225
NCI-H358 | 0.618 | 0.475 | 0.237 | 0.387 | 0.252 | 0.124 | 0.0956 | 0.118 | 0.127 | 0.113 | 0.159 | 0.187 | 0.161 | 0.162 | 0.179 |  |  |  |  | 
NCI-H1648 |  |  |  |  |  | 0.479 | 0.48 | 0.371 | 0.566 | 0.412 | 0.652 | 0.613 | 0.518 | 0.804 | 0.683 |  |  |  |  | 
EBC-1 | 0.191 | 0.18 |  | 0.187 | 0.189 |  |  |  |  |  |  |  |  |  |  | 0.398 | 0.353 | 0.376 | 0.337 | 0.37
NCI-H1299 | 0.963 | 0.921 | 0.788 | 0.893 | 0.566 |  |  |  |  |  |  |  |  |  |  | 1.05 | 1.07 | 0.782 | 1.06 | 0.526
NCI-H2342 |  |  |  |  |  | 0.491 | 0.374 | 0.538 | 0.481 | 0.515 | 0.795 | 0.73 | 0.572 | 0.749 | 0.628 |  |  |  |  | 
IA-LM | 1.07 | 0.718 |  | 1.1 | 0.609 |  |  |  |  |  |  |  |  |  |  | 0.899 | 0.688 | 0.506 | 0.805 | 0.616
NCI-H727 | 0.927 | 0.613 | 0.638 | 0.947 | 0.881 | 0.683 | 0.699 | 0.561 | 0.773 | 0.557 |  |  |  |  |  | 0.492 | 0.451 | 0.474 | 0.442 | 0.411
NCI-H650 | 0.598 | 0.652 | 0.587 | 0.43 | 0.334 | 0.752 | 0.677 | 0.689 | 0.588 | 0.265 | 0.918 | 1.03 | 0.757 | 0.454 | 0.286 |  |  |  |  | 
NCI-H661 | 1.24 | 1 | 1.02 | 1.05 | 0.997 | 0.355 | 0.337 | 0.336 | 0.354 | 0.381 | 0.939 | 0.951 | 0.832 | 0.995 | 0.891 |  |  |  |  | 
NCI-H1793 |  |  |  |  |  | 0.376 | 0.246 | 0.207 | 0.275 | 0.226 | 1.08 | 0.92 | 0.292 | 0.347 | 0.287 | 0.403 | 0.448 | 0.318 | 0.285 | 0.208
